Experimental data from patent publication US20050197350A1, “Novel quinoline, tetrahydroquinazoline, and pyrimidine derivatives and methods of treatment related to the use thereof” (TAISHO PHARMACEUTICAL CO., LTD., priority 2003, published 2005).

Each compound was assayed on MCH receptors (assay: MCH receptor activity class (method not given)). Settings: MCH receptor activity class 1-3 (percent of control at 10^-7 M or IC50).
For `CN(C)c1cc(N[C@H]2CC[C@@H](CNC(=O)Nc3ccc(F)c(F)c3)CC2)nc2ccccc12` [compound 2402], the class was 3 (Class 3 The value of percent of control at 10^−7 M was more than 60% or the value of IC50 was more than 200 nM.).

Same assay, conditions: MCH receptor; class by percent of control at 10^-7 M or IC50
In the case of `CN(C)c1nc(N[C@H]2CC[C@@H](NC(=S)Nc3ccc4c(c3)CCC4)CC2)nc2c1CCCC2` [compound 2054], the class is reported as 3 (Class 3 The value of percent of control at 10^−7 M was more than 60% or the value of IC50 was more than 200 nM.).
`Cc1noc(C)c1NC(=O)N[C@H]1CC[C@@H](Nc2nc3c(c(N(C)C)n2)CCCC3)CC1` [compound 1924] was tested, and the class was 3 (Class 3 The value of percent of control at 10^−7 M was more than 60% or the value of IC50 was more than 200 nM.).
`CN(C)c1cc(N[C@H]2CC[C@@H](NC(=O)c3ccc4nonc4c3)CC2)nc2ccccc12` [compound 23, N-(cis-4-{[4-(dimethylamino)quinolin-2-yl]amino}cyclohexyl)-2,1,3-benzoxadiazole-5-carboxamide] was tested, and the class was 1 (Class 1: The value of percent of control at 10^−7 M was less than 40% or the value of IC50 was less than 50 nM.).

Same assay, conditions: activity class 1-3: percent of control at 10^-7 M or IC50
In the case of `COc1cc(COC(=O)NC2CCC(Nc3nccc(N(C)C)n3)CC2)c([N+](=O)[O-])cc1OC` (centres unmarked) [compound 1621, [4-(4-Dimethylamino-pyrimidin-2-ylamino)-cyclohexyl]-carbamid acid 4,5-dimethoxy-2-nitro-benzyl ester], the class is reported as 3 (Class 3 The value of percent of control at 10^−7 M was more than 60% or the value of IC50 was more than 200 nM.).
In the case of `Cc1cc(Br)cc(C)c1NC(=O)N[C@H]1CC[C@@H](Nc2nc3c(c(N(C)C)n2)CCCC3)CC1` [compound 1690, N-(4-bromo-2,6-dimethylphenyl)-N′-(cis-4-{[4-(dimethylamino)-5,6,7,8-tetrahydroquinazolin-2-yl]amino}cyclohexyl)urea], the class is reported as 1 (Class 1: The value of percent of control at 10^−7 M was less than 40% or the value of IC50 was less than 50 nM.).
For `CN(C)c1cc(N[C@H]2CC[C@@H](CNC(=O)Oc3ccccc3)CC2)nc2ccccc12` [compound 1572], the class was 3 (Class 3 The value of percent of control at 10^−7 M was more than 60% or the value of IC50 was more than 200 nM.).
`CCOC(=O)N[C@H]1CC[C@@H](Nc2nc3c(c(N(C)C)n2)CCCC3)CC1` [compound 1587] was tested, and the class was 3 (Class 3 The value of percent of control at 10^−7 M was more than 60% or the value of IC50 was more than 200 nM.).

Same assay, conditions: activity class per percent of control at 10^-7 M or IC50
With `C=CCSc1ncccc1C(=O)N[C@H]1CC[C@@H](Nc2nc3c(c(N(C)C)n2)CCCC3)CC1` [compound 1059] the class was 3 (Class 3 The value of percent of control at 10^−7 M was more than 60% or the value of IC50 was more than 200 nM.).
With `COc1ccc2c(CC(=O)N[C@H]3CC[C@@H](Nc4nc5c(c(N(C)C)n4)CCCC5)CC3)cc(=O)oc2c1` [compound 990] the class was 1 (Class 1: The value of percent of control at 10^−7 M was less than 40% or the value of IC50 was less than 50 nM.).

Same assay, conditions: class 1-3 by percent of control at 10^-7 M or IC50
With `Cc1cc(=O)oc2c(OCC(=O)N[C@H]3CC[C@@H](Nc4nc5c(c(N(C)C)n4)CCCC5)CC3)cccc12` [compound 580] the class was 3 (Class 3 The value of percent of control at 10^−7 M was more than 60% or the value of IC50 was more than 200 nM.).
With `CN(C)c1nc(N[C@H]2CC[C@@H](NC(=O)Cc3ccc(F)cc3)CC2)nc2c1CCCC2` [compound 504] the class was 1 (Class 1: The value of percent of control at 10^−7 M was less than 40% or the value of IC50 was less than 50 nM.).

Same assay, conditions: class by percent of control at 10^-7 M or IC50
With `CN(C)c1nc(N[C@H]2CC[C@@H](NC[C@@H](COCc3ccccc3)OCc3ccccc3)CC2)nc2c1CCCC2` [compound 1487] the class was 3 (Class 3 The value of percent of control at 10^−7 M was more than 60% or the value of IC50 was more than 200 nM.).
`Cc1ccc(C(=O)c2ccccc2C(=O)N[C@H]2CC[C@@H](Nc3cc(N(C)C)c4ccccc4n3)CC2)cc1` [compound 759] was tested, and the class was 3 (Class 3 The value of percent of control at 10^−7 M was more than 60% or the value of IC50 was more than 200 nM.).
With `COc1cc(CNC[C@H]2CC[C@@H](Nc3nccc(N(C)C)n3)CC2)cc(OC)c1OC` [compound 1257] the class was 2 (Class 2: The value of percent of control at 10^−7 M was from 40% to 60% or the value of IC′50 was from 50 nM to 200 nM.).
With `COc1cc(NC(=S)N[C@H]2CC[C@@H](Nc3nc4c(c(N(C)C)n3)CCCC4)CC2)c(OC)cc1Cl` [compound 1788] the class was 2 (Class 2: The value of percent of control at 10^−7 M was from 40% to 60% or the value of IC′50 was from 50 nM to 200 nM.).
`CN(C)c1cc(N[C@H]2CC[C@@H](NC(=O)Nc3ccccc3C(F)(F)F)CC2)nc2ccccc12` [compound 2096] was tested, and the class was 3 (Class 3 The value of percent of control at 10^−7 M was more than 60% or the value of IC50 was more than 200 nM.).
With `CN(C)c1ccnc(N[C@H]2CC[C@@H](CNC(=O)Cc3ccc(Cl)cc3)CC2)n1` [compound 373] the class was 2 (Class 2: The value of percent of control at 10^−7 M was from 40% to 60% or the value of IC′50 was from 50 nM to 200 nM.).
With `CN(C)c1ccnc(N[C@H]2CC[C@@H](NC(=O)CCC3CCCCC3)CC2)n1` [compound 834] the class was 3 (Class 3 The value of percent of control at 10^−7 M was more than 60% or the value of IC50 was more than 200 nM.).
With `CCC(C(=O)N[C@H]1CC[C@@H](Nc2nccc(N(C)C)n2)CC1)c1ccccc1` (relative stereo) [compound 284] the class was 3 (Class 3 The value of percent of control at 10^−7 M was more than 60% or the value of IC50 was more than 200 nM.).
With `CN(C)c1nc(N[C@H]2CC[C@@H](CNCc3ccccc3OC(F)F)CC2)nc2c1CCCC2` [compound 1414] the class was 3 (Class 3 The value of percent of control at 10^−7 M was more than 60% or the value of IC50 was more than 200 nM.).
`CN(C)c1ccnc(N[C@H]2CC[C@@H](NC(=O)c3ccc(Cl)c(Cl)c3)CC2)n1` [compound 249] was tested, and the class was 1 (Class 1: The value of percent of control at 10^−7 M was less than 40% or the value of IC50 was less than 50 nM.).
For `CN(C)c1ccnc(N[C@H]2CC[C@@H](NC(=O)COc3ccc(Cl)cc3)CC2)n1` [compound 314], the class was 1 (Class 1: The value of percent of control at 10^−7 M was less than 40% or the value of IC50 was less than 50 nM.).
With `CN(C)c1nc(N[C@H]2CC[C@@H](NC(=O)Nc3cc(Cl)ccc3Cl)CC2)nc2c1CCCC2` [compound 1821] the class was 3 (Class 3 The value of percent of control at 10^−7 M was more than 60% or the value of IC50 was more than 200 nM.).
`CN(C)c1ccnc(N[C@H]2CC[C@@H](NC(=O)Cc3c[nH]c4ccccc34)CC2)n1` [compound 850] was tested, and the class was 2 (Class 2: The value of percent of control at 10^−7 M was from 40% to 60% or the value of IC′50 was from 50 nM to 200 nM.).
With `CN(C)c1ccnc(N[C@H]2CC[C@@H](CNCc3cc(Cl)cc(Cl)c3)CC2)n1` [compound 1308] the class was 3 (Class 3 The value of percent of control at 10^−7 M was more than 60% or the value of IC50 was more than 200 nM.).
In the case of `Cc1ccccc1CNC(=O)N[C@H]1CC[C@@H](Nc2nccc(N(C)C)n2)CC1` [compound 2236], the class is reported as 3 (Class 3 The value of percent of control at 10^−7 M was more than 60% or the value of IC50 was more than 200 nM.).
With `CN(C)c1nc(N[C@H]2CC[C@@H](CNC(=O)c3cncc(Br)c3)CC2)nc2c1CCCC2` [compound 650] the class was 3 (Class 3 The value of percent of control at 10^−7 M was more than 60% or the value of IC50 was more than 200 nM.).
For `CN(C)c1ccnc(N[C@H]2CC[C@@H](NC(=O)NCc3ccc(Br)cc3)CC2)n1` [compound 2243], the class was 3 (Class 3 The value of percent of control at 10^−7 M was more than 60% or the value of IC50 was more than 200 nM.).
With `Cc1cccc([N+](=O)[O-])c1NC(=O)N[C@H]1CC[C@@H](Nc2nc3c(c(N(C)C)n2)CCCC3)CC1` [compound 1802] the class was 3 (Class 3 The value of percent of control at 10^−7 M was more than 60% or the value of IC50 was more than 200 nM.).
In the case of `CN(C)c1ccnc(N[C@H]2CC[C@@H](NC(=O)c3csc([N+](=O)[O-])c3)CC2)n1` [compound 906, N-(cis-4-{[4-(dimethylamino)pyrimidin-2-yl]amino}cyclohexyl)-5-nitrothiophene-3-carboxamide], the class is reported as 1 (Class 1: The value of percent of control at 10^−7 M was less than 40% or the value of IC50 was less than 50 nM.).
In the case of `CN(C)c1nc(N[C@H]2CC[C@@H](NC(=O)Nc3ccc(C(F)(F)F)cc3Cl)CC2)nc2c1CCCC2` [compound 1853], the class is reported as 3 (Class 3 The value of percent of control at 10^−7 M was more than 60% or the value of IC50 was more than 200 nM.).
For `CN(C)c1ccnc(N[C@H]2CC[C@@H](NC(=O)c3ccccc3COc3ccccc3)CC2)n1` [compound 899], the class was 3 (Class 3 The value of percent of control at 10^−7 M was more than 60% or the value of IC50 was more than 200 nM.).
`CN(C)c1nc(N[C@H]2CC[C@@H](NCc3cccc4ccccc34)CC2)nc2c1CCCC2` [compound 1361] was tested, and the class was 3 (Class 3 The value of percent of control at 10^−7 M was more than 60% or the value of IC50 was more than 200 nM.).
In the case of `Cc1cc(C)c(C(=O)C(=O)N[C@H]2CC[C@@H](Nc3cc(N(C)C)c4ccccc4n3)CC2)c(C)c1` [compound 775, N-(cis-4-{[4-(dimethylamino)quinolin-2-yl]amino}cyclohexyl)-2-mesityl-2-oxoacetamide], the class is reported as 2 (Class 2: The value of percent of control at 10^−7 M was from 40% to 60% or the value of IC′50 was from 50 nM to 200 nM.).

Same assay, conditions: class by percent of control at 10^−7 M or IC50
`Cc1cnc(N[C@H]2CC[C@@H](NC(=O)CN(C)c3ccc(F)cc3)CC2)nc1N(C)C` [compound 2944] was tested, and the class was 1 (Class 1: The value of percent of control at 10^−7 M was less than 40% or the value of IC50 was less than 50 nM.).
In the case of `Cc1cnc(N[C@H]2CC[C@@H](NC(=O)C(O)c3ccc(Cl)cc3)CC2)nc1N(C)C` (relative stereo) [compound 2876, 2-(4-chlorophenyl)-N-(cis-4-{[4-(dimethylamino)-5-methylpyrimidin-2-yl]amino}cyclohexyl)-2-hydroxyacetamide], the class is reported as 1 (Class 1: The value of percent of control at 10^−7 M was less than 40% or the value of IC50 was less than 50 nM.).
With `Cc1cnc(N[C@H]2CC[C@@H](NC(=O)CN(C)c3cccc(F)c3)CC2)nc1N(C)C` [compound 2943] the class was 1 (Class 1: The value of percent of control at 10^−7 M was less than 40% or the value of IC50 was less than 50 nM.).
